Experimental data published in US20230242885A1, “METHOD OF PRODUCING CARDIOMYOCYTE POPULATION, METHOD OF PROLIFERATING CARDIOMYOCYTES, CARDIOMYOCYTE POPULATION, TRANSPLANTATION MATERIAL, MULTINUCLEATED CARDIOMYOCYTE, AND KIT FOR PROLIFERATING CARDIOMYOCYTES” (Myoridge Co. Ltd., priority 2020, published 2023).
One block for each compound: values may come before it.

How the values were obtained:
[1] = system: cardiomyocyte population (third serial subculture); assay: Drug responsiveness test by calcium imaging; assay type: cell-based, human; details: terfenadine 300 to 900 nM; calcium signal 10 minutes after addition
[2] = system: cardiomyocytes induced from human iPS cells (253G1 strain); assay: Proliferation culture of cardiomyocytes with WNT signal activator CHIR99021, serial subculture (Example 2); assay type: cell-based; details: for cTnT positive rate (cardiomyocyte purity): CHIR99021 added (1 to 5 μM); for proliferation rate compared with no CHIR99021: CHIR99021 1 to 5 μM; for total cardiomyocyte proliferation: 2.0×10^5 cells/cm^2
Method: A “ratio of multinucleated cardiomyocytes” was determined from a percentage of multinucleated cardiomyocytes in 10,000 cardiomyocytes.
Thereafter, the culture medium was replaced every 3 to 4 days, and culturing was performed for 2 weeks (a first serial subculture).
For the cells obtained after each serial subculture, “cardiomyocyte purity”, “cardiomyocyte proliferation rate”, “ratio of multinucleated cardiomyocytes”, and “average maximum length of multinucleated cardiomyocytes” were determined according to the same procedure as in Example 1.

early afterdepolarization (EAD) response [1]: detected
Compound: CC(C)(C)c1ccc(C(O)CCCN2CCC(C(O)(c3ccccc3)c3ccccc3)CC2)cc1 (stereo not drawn) [terfenadine]

Compound: Cc1cnc(-c2cnc(NCCNc3ccc(C#N)cn3)nc2-c2ccc(Cl)cc2Cl)[nH]1 [CHIR99021, 6-[2-[[4-(2,4-dichlorophenyl)-5-(5-methyl-1H-imidazol-2-yl)pyrimidin-2-yl]amino]ethylamino]pyridine-3-carbonitrile]
cTnT positive rate (cardiomyocyte purity) ([2]; after the first serial subculture, before culturing 90 to 96%): ≥ 90% | cTnT positive rate (cardiomyocyte purity) ([2]; after the second serial subculture): ≥ 90% | concentration of CHIR99021 at which the cardiomyocyte proliferation rate was the highest ([2]; first and second serial subculture, tested 1, 2, 3, 5 μM): 3 µM | cardiomyocyte proliferation rate ([2]; first serial subculture (2 weeks), seeding density 2.0×10^5 cells/cm^2, CHIR99021 3 μM): 4.5 fold | proliferation rate compared with no CHIR99021 ([2]; first serial subculture): higher proliferation rates | total cardiomyocyte proliferation ([2]; in total after the second serial subculture, CHIR99021 3 μM): 12.6 fold | total cardiomyocyte proliferation ([2]; in total after the third to fourth serial subcultures, CHIR99021 3 μM): 22.7 fold | proliferation rate compared with no CHIR99021 ([2]; second serial subculture): higher proliferation rates
